Values after ≈ are worked out from the molar mass of the structure shown. Where two headings read alike, the source gives them in different places.
Key:
[1] = system: Bacteroides spp. spontaneous mutants; experiment: Broth microdilution MIC of spontaneous mutants; assay type: cell-based
Experimental: Select isolates were subcultured onto agar containing drug at the selection concentration, were identified by MALDI, and were frozen for broth microdilution MIC testing as described below.
To determine whether colonies growing on drug selection plates had elevated MIC values to the selecting antibiotic, susceptibility testing by broth microdilution was conducted on isolated mutants following methodology recommended by CLSI (1), (2), and (3) “Performance Standards for Antimicrobial Susceptibility Testing; Twenty-Eighth Informational Supplement.,” CLSI document M100-S28, 2018.
All wells in columns 2 through 12 of a standard 96-well microdilution plate (Costar 3795) were filled with 150 μL of the appropriate diluent. Then, 300 μL of the test agents were added to the wells of column 1 of the plates at […] the highest final concentration to be tested. Serial two-fold dilutions were made across the rows through column 11 using the Biomek 2000. The wells of column 12 contained no drug and served as the growth control wells. This plate served as the “mother plate” from which selected MIC assay plates or “daughter plates” were made.
Daughter plates for anaerobic organisms were transferred to a Bactron II anaerobic chamber (Sheldon Manufacturing Inc., Cornelius, Oreg.) to reduce for 1 hour prior to inoculation. The inoculum for each organism was prepared in the anaerobic chamber and dispensed into sterile disposable reservoirs. Inoculation was completed using a multichannel pipette to transfer 10 μL of the inoculum into each well of the daughter plate. This yielded a final cell concentration in the daughter plates of approximately 1×10^6 CFU/mL.

[2] = system: Bacteroides spp. spontaneous mutants; conditions: B. fragilis ATCC 25285; CLSI QC range shown in parentheses; cited from earlier work
[3] = system: E. coli ATCC 25922; experiment: Broth microdilution MIC (time-kill study); assay type: cell-based, Escherichia coli
[4] = system: Bacteroides spp.; experiment: Spontaneous mutation frequency assay; assay type: cell-based
Experimental: Initial values of the MIC were determined by agar dilution in accordance with guidelines from the Clinical and Laboratory Standards Institute (CLSI; (1) “Methods for Dilution Antimicrobial Susceptibility Tests for Bacteria That Grow Aerobically; Approved Standard; 11th ed.,” CLSI standard M07, 2018; (2) “Methods for Antimicrobial Susceptibility Testing of Anaerobic Bacteria; Approved Standard—Eighth Edition,” CLSI document M11-A8, 2012.).
The agar plates were prepared by mixing a ratio of 1.0 mL of concentrated drug to 49.0 mL of the appropriate molten (47° C.) agar; the drug-supplemented agar was mixed, poured into 15-by-150 mm petri dishes and allowed to solidify and dry at room temperature prior to inoculation. […] Each plate was allowed to cool at room temperature for at least 1 hr.
The isolates were streaked onto the appropriate agar medium and incubated for 20 hr (aerobes) or 48 hr (Bacteroides under anaerobic conditions). Using a sterile swab, several well-isolated colonies were removed and resuspended in sterile saline at a heavy cell density. Each plate was inoculated with 0.5 mL of the cell suspension (each test concentration was inoculated in duplicate). The target inoculum for each spontaneous mutation plate was 10^9-10 CFU. In addition, a portion of the inoculum from each isolate was enumerated by making dilutions, spreading on agar and counting colonies.
Once the inoculum was absorbed into the agar, the plates were incubated at 35° C. Aerobes were examined at 24 and 48 hr, and resulting colonies were counted. Bacteroides were incubated anaerobically for 48-72 hr in the anaerobe chamber and colonies were counted.
Colony counts from plates used to enumerate the initial inoculum density and from the resulting spontaneous mutation frequency test plates were determined. The inoculum size was calculated as CFU inoculated per plate. The spontaneous mutation frequency was calculated using the counts from duplicate spontaneous mutation assay test plates as follows:
If there were no colonies on the antibiotic selection plates, the spontaneous mutation frequency was reported as less than the frequency observed with one colony to indicate that the spontaneous mutation frequency was less than the limit of detection (one CFU). […] The mutation prevention concentration (MPC) was reported as the lowest concentration for which no mutants were selected.

[5] = system: Streptococcus spp. (S. pneumoniae ATCC 49619, S. pyogenes ATCC 49399, S. agalactiae ATCC 13813); conditions: cited from earlier work
[6] = system: E. coli spontaneous mutants; conditions: E. coli ATCC 25922; CLSI QC range shown in parentheses; cited from earlier work
[7] = system: Enterobacteriaceae; conditions: cited from earlier work
[8] = in vivo, 50 mg/kg, cited from earlier work
[9] = system: B. fragilis; experiment: Spontaneous mutation frequency and mutation prevention concentration (MPC); assay type: cell-based; conditions: B. fragilis ATCC 25285
Excerpt: (§1) As used herein, “spontaneous mutation frequency” refers to the rate at which mutations arise in a bacterium that can lead to resistance to develop to an antimicrobial agent. “Mutation prevention concentration” or “MPC” refers to the lowest concentration of antimicrobial agent above which the selective proliferation of resistant mutants is expected to occur only rarely.

[10] = system: B. ovatus; experiment: as above; assay type: cell-based; conditions: B. ovatus MMX 3503
Excerpt: as §1

[11] = system: B. fragilis ATCC 25285; experiment: Time-kill assay; assay type: cell-based, Bacteroides fragilis; conditions: 2×, 4×, 8× MIC; 2, 6, 24, 48 hr
[12] = B. fragilis ATCC 25285, selected on rifaximin 4X MIC, Colony A
[13] = B. fragilis ATCC 25285, selected on rifaximin 4X MIC, Colony B
[14] = B. fragilis ATCC 25285, selected on rifaximin 8X MIC, Colony A
[15] = B. fragilis ATCC 25285, selected on rifaximin 8X MIC, Colony B
[16] = B. ovatus MMX 3503, selected on rifaximin 4X MIC, Colony A
[17] = B. ovatus MMX 3503, selected on rifaximin 4X MIC, Colony B
[18] = B. ovatus MMX 3503, selected on rifaximin 8X MIC, Colony A
[19] = B. ovatus MMX 3503, selected on rifaximin 8X MIC, Colony B
[20] = B. vulgatus ATCC 8482, selected on ceftriaxone 4X MIC, Colony A
[21] = B. vulgatus ATCC 8482, selected on ceftriaxone 4X MIC, Colony B
[22] = B. vulgatus ATCC 8482, selected on rifaximin 4X MIC, Colony A
[23] = B. vulgatus ATCC 8482, selected on rifaximin 4X MIC, Colony B
[24] = B. vulgatus ATCC 8482, selected on rifaximin 8X MIC, Colony A
[25] = B. vulgatus ATCC 8482, selected on rifaximin 8X MIC, Colony B
[26] = B. vulgatus ATCC 8482 Parent (Table 50)
[27] = B. vulgatus ATCC 8482 Parent (Table 54)
[28] = rifaximin selection 4X MIC, 1 μg/mL
[29] = rifaximin selection 8X MIC, 2 μg/mL
[30] = rifaximin selection 4X MIC, 2 μg/mL
[31] = rifaximin selection 8X MIC, 4 μg/mL

Cc1ncc([N+](=O)[O-])n1CCO [MTZ]
MIC [1, 12]: 0.25 µg/mL | MIC [1, 13]: 0.5 µg/mL | MIC [1, 14]: 0.5 µg/mL | MIC [1, 15]: 0.25 µg/mL | MIC ([1]; B. fragilis ATCC 25285 Parent): 0.25 µg/mL | MIC [1, 16]: 2 µg/mL | MIC [1, 17]: 0.5 µg/mL | MIC [1, 18]: 1 µg/mL | MIC [1, 19]: 2 µg/mL | MIC ([1]; B. ovatus MMX 3503 Parent): 0.5 µg/mL | MIC [1, 20]: 1 µg/mL | MIC [1, 21]: 1 µg/mL | MIC [1, 22]: 1 µg/mL | MIC [1, 23]: 1 µg/mL | MIC [1, 24]: 1 µg/mL | MIC [1, 25]: 1 µg/mL | MIC [1, 26]: 1 µg/mL | MIC [1, 27]: 1 µg/mL | MIC, CLSI QC range [2]: (0.25-2) μg/mL

CO/N=C(\C(=O)N[C@@H]1C(=O)N2C(C(=O)O)=C(CSc3nc(=O)c(=O)[nH]n3C)CS[C@H]12)c1csc(N)n1 [ceftriaxone]
MIC ([3]; E. coli ATCC 25922): 0.06 µg/mL (≈ 0.108 µM) | MIC ([3]; Escherichia coli, ATCC25922, broth microdilution, read-out: MIC): 0.06 µg/mL (≈ 0.108 µM) | MPC (mutation prevention concentration) ([4]; B. vulgatus ATCC 8482): 32 µg/mL | Spontaneous Mutation Frequency ([4]; B. vulgatus ATCC 8482, 4× the MIC): > 8.69×10^−8 | Spontaneous Mutation Frequency ([4]; B. vulgatus ATCC 8482, 8× the MIC): ≤ 1.74×10^−10 | MIC ([1]; B. fragilis ATCC 25285, selected on rifaximin 4X MIC, Colony A, read-out: MIC): 16 µg/mL | MIC ([1]; B. fragilis ATCC 25285, selected on rifaximin 4X MIC, Colony B, read-out: MIC): 32 µg/mL | MIC ([1]; B. fragilis ATCC 25285, selected on rifaximin 8X MIC, Colony A, read-out: MIC): 32 µg/mL | MIC ([1]; B. fragilis ATCC 25285, selected on rifaximin 8X MIC, Colony B, read-out: MIC): 32 µg/mL | MIC ([1]; B. fragilis ATCC 25285 Parent, read-out: MIC): 32 µg/mL | MIC ([1]; B. ovatus MMX 3503, selected on rifaximin 4X MIC, Colony A, read-out: MIC): 128 µg/mL | MIC ([1]; B. ovatus MMX 3503, selected on rifaximin 4X MIC, Colony B, read-out: MIC): 64 µg/mL | MIC ([1]; B. ovatus MMX 3503, selected on rifaximin 8X MIC, Colony A, read-out: MIC): > 128 µg/mL | MIC ([1]; B. ovatus MMX 3503, selected on rifaximin 8X MIC, Colony B, read-out: MIC): 64 µg/mL | MIC ([1]; B. ovatus MMX 3503 Parent, read-out: MIC): 128 µg/mL | broth microdilution MIC higher than parent ([1]; B. vulgatus ATCC 8482, one of two isolates selected at 4× the MIC): 4 fold | MIC ([1]; B. vulgatus ATCC 8482, selected on ceftriaxone 4X MIC, Colony A, read-out: MIC): 2 µg/mL | MIC ([1]; B. vulgatus ATCC 8482, selected on ceftriaxone 4X MIC, Colony B, read-out: MIC): 4 µg/mL | MIC ([1]; B. vulgatus ATCC 8482, selected on rifaximin 4X MIC, Colony A, read-out: MIC): 2 µg/mL | MIC ([1]; B. vulgatus ATCC 8482, selected on rifaximin 4X MIC, Colony B, read-out: MIC): 1 µg/mL | MIC ([1]; B. vulgatus ATCC 8482, selected on rifaximin 8X MIC, Colony A, read-out: MIC): 2 µg/mL | MIC ([1]; B. vulgatus ATCC 8482, selected on rifaximin 8X MIC, Colony B, read-out: MIC): 2 µg/mL | MIC ([1]; B. vulgatus ATCC 8482 Parent (Table 50), read-out: MIC): 1 µg/mL | MIC ([1]; B. vulgatus ATCC 8482 Parent (Table 54), read-out: MIC): 1 µg/mL | CLSI QC range (agar MIC) [5]: 0.03 to 0.12 µg/mL | MIC, CLSI QC range [6]: (0.03-0.12)^1 μg/mL | % S [7]: 87.5% | MIC50 [7]: ≤1 µg/mL | MIC90 [7]: 8 µg/mL (≈ 14.4 µM) | Rat oral exposure lower than iv [8]: mg/kg (200-fold | Rat oral exposure (Dose) ([8]; po): 0.9 μg*hr/mL at 50

CO[C@H]1/C=C/O[C@@]2(C)Oc3c(C)c(O)c4c(O)c(c5c(nc6cc(C)ccn65)c4c3C2=O)NC(=O)/C(C)=C\C=C\[C@H](C)[C@H](O)[C@@H](C)[C@@H](O)[C@@H](C)[C@H](OC(C)=O)[C@@H]1C [rifaximin]
MFC [9]: >2 µg/mL | Average Count [9, 28]: 11 CFU | Count 1 [9, 28]: 12 CFU | Count 2 [9, 28]: 10 CFU | Spontaneous Mutation Frequency [9, 28]: 1.63 × 10^−9 | Average Count [9, 29]: 8 CFU | Count 1 [9, 29]: 6 CFU | Count 2 [9, 29]: 9 CFU | Spontaneous Mutation Frequency [9, 29]: 1.19 × 10^−9 | MFC [10]: >4 µg/mL | Average Count [10, 30]: 34 CFU | Count 1 [10, 30]: 31 CFU | Count 2 [10, 30]: 37 CFU | Spontaneous Mutation Frequency [10, 30]: 3.58 × 10^−9 | Average Count [10, 31]: 27 CFU | Count 1 [10, 31]: 28 CFU | Count 2 [10, 31]: 25 CFU | Spontaneous Mutation Frequency [10, 31]: 2.84 × 10^−9 | MIC ([3]; E. coli ATCC 25922): 8 µg/mL (≈ 10.2 µM) | MIC ([3]; broth microdilution): 8 µg/mL (≈ 10.2 µM) | time-kill kinetics outcome (bactericidal = ≥3 log reduction in CFU per mL) [11]: did not show evidence of killing | MIC [1, 12]: >64 µg/mL | MIC [1, 13]: 64 µg/mL | MIC [1, 14]: >64 µg/mL | MIC [1, 15]: >64 µg/mL | MIC ([1]; B. fragilis ATCC 25285 Parent): 0.12 µg/mL | MIC [1, 16]: >64 µg/mL | MIC [1, 17]: >64 µg/mL | MIC [1, 18]: >64 µg/mL | MIC [1, 19]: >64 µg/mL | MIC ([1]; B. ovatus MMX 3503 Parent): 0.25 µg/mL | MIC [1, 20]: 0.06 µg/mL | MIC [1, 21]: 0.12 µg/mL | MIC [1, 22]: 32 µg/mL | MIC [1, 23]: 64 µg/mL | MIC [1, 24]: >64 µg/mL | MIC [1, 25]: >64 µg/mL | MIC [1, 26]: 0.06 µg/mL | MIC [1, 27]: 0.06 µg/mL | broth microdilution MIC of selected colonies relative to parent strain ([1]; colonies selected at 4× and 8× the MIC): several-fold higher

CN[C@H](CC(C)C)C(=O)N[C@H]1C(=O)N[C@@H](CC(N)=O)C(=O)N[C@H]2C(=O)N[C@H]3C(=O)N[C@H](C(=O)N[C@H](C(=O)O)c4cc(O)cc(O)c4-c4cc3ccc4O)[C@H](O)c3ccc(c(Cl)c3)Oc3cc2cc(c3O[C@@H]2O[C@H](CO)[C@@H](O)[C@H](O)[C@H]2O[C@H]2C[C@](C)(N)[C@H](O)[C@H](C)O2)Oc2ccc(cc2Cl)[C@H]1O [vancomycin, Vancomycin]
MIC ([3]; Escherichia coli, ATCC25922, E. coli ATCC 25922, read-out: MIC): > 16 µg/mL

piperacillin/tazobactam [piperacillin-tazobactam]
MIC ([3]; E. coli ATCC 25922): 4/4

— patent US20210386367A1, “DEVICES AND SYSTEMS FOR GASTROINTESTINAL MICROBIOME DETECTION AND MANIPULATION” (Progenity, Inc., priority 2018, published 2021)
